Results as given in patent publication US9896443B2, “Perforin inhibiting benzenesulfonamide compounds, preparation and uses thereof” (Peter MacCallum Cancer Institute, priority 2012, dated 2018).
Where a name gives a salt, the structure may show the parent alone. Read-outs that look alike come from different tables or passages of the source.

Legend:
recombinant perforin = recombinant perforin (UniProt P10820); assay type: cell-based
Experimental: Inhibition of perforin-mediated lysis of Jurkat cells.
The ability of the compounds to inhibit the lysis of nucleated (Jurkat T lymphoma) cells in the presence of 0.1% BSA, as measured by release of ^51Cr was measured. Jurkat target cells were labelled by incubation in medium with 100 μCi ^51Cr for one hour. The cells were then washed three times to remove unincorporated isotope and re-suspended at 1×10^5 cells per mL in RPMI buffer supplemented with 0.1% BSA. […] Each data point was performed in triplicate and an IC50 was calculated from the range of concentrations described to above.

[1] = system: KHYG-1 NK cell-mediated lysis of K562 cells; test: Inhibition of KHYG-1 NK cell-mediated lysis of K562 cells (51Cr release); assay type: cell-based; details: K562 target cells, Effector:Target 2:1, 4 hours at 37° C.
Experimental: Inhibition of KHYG-1 NK Cell-Mediated Lysis of K562 Cells.
Test compounds were added to KHYG-1 cells at various concentrations up to 20 µM and incubated at RT for 20 minutes. 1×10^6 K562 target cells were labelled with 75 μCi ^51Cr in 200 μl RPMI for 90 mins at 37° C., cells were washed as described above and resuspended in 5 ml RPMI+0.1% BSA. 50 μl of ^51Cr labelled K562 leukemia target cells were added to each well of the KHYG-1 plate (Effector:Target 2:1) and incubated at 37° C. for 4 hours. ^51Cr release was assayed using a Skatron Harvesting Press and radioactivity estimated on a Wallac Wizard 1470 Automatic Gamma counter (Turku, Finland). The percentage of specific cytotoxicity was calculated by the formula: […]

[2] = read-out: Jurkat IC50; lysis of Jurkat T lymphoma cells by recombinant perforin, 0.1% BSA, 30 min pre-incubation, 4 hours at 37° C.
[3] = lysis of Jurkat T lymphoma cells by recombinant perforin, 0.1% BSA, 30 min pre-incubation, 4 hours at 37° C.; read-out: Jurkat IC50

Sequence of recombinant perforin (P10820 whole entry): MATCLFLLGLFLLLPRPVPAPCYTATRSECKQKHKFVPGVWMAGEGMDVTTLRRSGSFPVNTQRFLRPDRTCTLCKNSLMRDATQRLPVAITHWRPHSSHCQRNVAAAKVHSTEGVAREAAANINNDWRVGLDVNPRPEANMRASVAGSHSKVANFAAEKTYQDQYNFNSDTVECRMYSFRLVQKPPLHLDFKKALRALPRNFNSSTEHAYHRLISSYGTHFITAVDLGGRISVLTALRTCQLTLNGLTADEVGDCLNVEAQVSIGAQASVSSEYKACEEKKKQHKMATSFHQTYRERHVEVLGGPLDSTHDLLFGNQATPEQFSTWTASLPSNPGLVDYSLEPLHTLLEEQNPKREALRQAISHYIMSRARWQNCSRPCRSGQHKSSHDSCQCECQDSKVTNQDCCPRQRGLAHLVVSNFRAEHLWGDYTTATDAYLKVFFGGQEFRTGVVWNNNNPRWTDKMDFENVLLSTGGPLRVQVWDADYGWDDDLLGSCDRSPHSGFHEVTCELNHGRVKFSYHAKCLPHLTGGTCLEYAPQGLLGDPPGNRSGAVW

Row | Structure (SMILES) | inhibition at 20 µM ([1]; 4 h) | IC50 (recombinant perforin; [3]) | further results
1 | CN1Cc2cc(-c3ccc(-c4cncc(NS(=O)(=O)c5ccc(Br)s5)c4)s3)ccc2C1=O [Compound 87, 5-Bromo-N-(5-(5-(2-methyl-1-oxoisoindolin-5-yl)thiophen-2-yl)pyridin-3-yl)thiophene-2-sulphonamide] | 31.6 ± 6% | – | IC50 (recombinant perforin; [2]): 1.8 µM
2 | O=C1NCc2cc(-c3ccc(-c4cncc(NS(=O)(=O)c5ccc(F)cc5F)c4)s3)ccc21 [Compound 48, 2,4-Difluoro-N-(5-(5-(1-oxoisoindolin-5-yl)thiophen-2-yl)pyridin-3-yl)benzenesulfonamide] | 35% | – | –
3 | CN1Cc2cc(-c3ccc(-c4cncc(NS(=O)(=O)c5ccccc5[N+](=O)[O-])c4)s3)ccc2C1=O [Compound 28, N-(5-(5-(2-Methyl-1-oxoisoindolin-5-yl)thiophen-2-yl)pyridin-3-yl)-2-nitrobenzenesulfonamide] | 71% | 6.65 µM | –
4 | CN1Cc2cc(-c3ccc(-c4cnc(F)c(NS(=O)(=O)c5ccccn5)c4)s3)ccc2C1=O [Compound 90, N-(2-Fluoro-5-(5-(2-methyl-1-oxoisoindolin-5-yl)thiophen-2-yl)pyridin-3-yl)pyridine-2-sulfonamide] | – | 4.1 µM | –
5 | CN1Cc2cc(-c3ccc(-c4ccc(OC(F)(F)F)c(NS(=O)(=O)c5ccccn5)c4)s3)ccc2C1=O [Compound 63.Na, N-(5-(5-(2-Methyl-1-oxoisoindolin-5-yl)thiophen-2-yl)-2-(trifluoromethoxy)phenyl)pyridine-2-sulfonamide] | – | 19.6 µM | Inhibition of KHYG-1 at 20 μM (%) ([1]; 20 µM): 77.07 ± 5%
6 | Cc1cc(C)n(-c2ccc(S(=O)(=O)Nc3cncc(-c4ccc(-c5ccc6c(c5)CN(C)C6=O)s4)c3)cc2)n1 [Compound 80, 4-(3,5-Dimethyl-1H-pyrazol-1-yl)-N-(5-(5-(2-methyl-1-oxoisoindolin-5-yl)thiophen-2-yl)pyridin-3-yl)benzenesulfonamides] | – | 19.1 µM | –
7 | CN1Cc2cc(-c3ccc(-c4cncc(NS(=O)(=O)c5ccc(-c6cnco6)cc5)c4)s3)ccc2C1=O [Compound 77, N-(5-(5-(2-Methyl-1-oxoisoindolin-5-yl)thiophen-2-yl)pyridin-3-yl)-4-(oxazol-5-yl)benzenesulfonamides] | 38.3 ± 5% | 3.05 µM | –
8 | CN1Cc2cc(-c3ccc(-c4cnc(Cl)c(NS(=O)(=O)c5ccc(F)cc5F)c4)s3)ccc2C1=O [Compound 40, 2,4-Difluoro-N-(2-chloro-5-(5-(2-methyl-1-oxoisoindolin-5-yl)thiophen-2-yl)pyridin-3-yl)benzenesulphonamide] | 85% | 1.03 µM | –
9 | CN1Cc2cc(-c3ccc(-c4cncc(NS(=O)(=O)c5ccc(Br)cc5Br)c4)s3)ccc2C1=O [Compound 75, 2,4-Dibromo-N-(5-(5-(2-methyl-1-oxoisoindolin-5-yl)thiophen-2-yl)pyridin-3-yl)benzenesulfonamides] | 49.2 ± 15% | 2.52 µM | –
10 | CN1Cc2cc(-c3ccc(-c4cncc(NS(=O)(=O)c5cccc(Cl)c5F)c4)s3)ccc2C1=O [Compound 14, 3-Chloro-2-fluoro-N-(5-(5-(2-methyl-1-oxoisoindolin-5-yl)thiophen-2-yl)pyridin-3-yl)benzenesulfonamide] | – | 13 µM | –
11 | CN1C(=O)Cc2cc(-c3ccc(-c4cncc(NS(=O)(=O)c5ccc(F)cc5F)c4)s3)ccc21 [Compound 66, 2,4-Difluoro-N-(5-(5-(1-methyl-2-oxoindolin-5-yl)thiophen-2-yl)pyridin-3-yl)benzenesulfonamides] | 34.3 ± 9% | – | IC50 (recombinant perforin; [2]): 10.2 µM
12 | CCOC(=O)c1ccc(S(=O)(=O)Nc2cncc(-c3ccc(-c4ccc5c(c4)CN(C)C5=O)s3)c2)cc1 [Compound 85, Ethyl 4-(N-(5-(5-(2-methyl-1-oxoisoindolin-5-yl)thiophen-2-yl)pyridin-3-yl)sulfamoyl)benzoate] | – | 19.4 µM | –
13 | CN1Cc2cc(-c3ccc(-c4cncc(NS(=O)(=O)c5ccc(F)cc5F)c4)s3)ccc2C1=O [Compound 1, 2,4-Difluoro-N-(5-(5-(2-methyl-1-oxoisoindolin-5-yl)thiophen-2-yl)pyridin-3-yl)benzenesulfonamide] | 46% | – | –
14 | O=C1NCc2ccc(-c3ccc(-c4cncc(NS(=O)(=O)c5ccc(F)cc5F)c4)s3)cc21 [Compound 49, 2,4-Difluoro-N-(5-(5-(3-oxoisoindolin-5-yl)thiophen-2-yl)pyridin-3-yl)benzenesulfonamide] | 49% | – | IC50 (recombinant perforin; [2]): 13.2 µM
15 | CN1Cc2cc(-c3ccc(-c4cncc(NS(=O)(=O)c5ccc(Cl)cc5)c4)s3)ccc2C1=O [Compound 11.Na, 4-Chloro-N-(5-(5-(2-methyl-1-oxoisoindolin-5-yl)thiophen-2-yl)pyridin-3-yl)benzenesulfonamide] | 14% | 8.28 µM | –
16 | CN1Cc2cc(-c3ccc(-c4cncc(NS(=O)(=O)c5ccc(F)cc5)c4)s3)ccc2C1=O [Compound 6, 4-Fluoro-N-(5-(5-(2-methyl-1-oxoisoindolin-5-yl)thiophen-2-yl)pyridin-3-yl)benzene-sulfonamide] | 10% | 9.65 µM | –
17 | CN1Cc2cc(-c3ccc(-c4cncc(NS(=O)(=O)c5ccccc5)c4)s3)ccc2C1=O [Compound 62, N-(5-(5-(2-Methyl-1-oxoisoindolin-5-yl)thiophen-2-yl)pyridin-3-yl)benzenesulphonamide] | 9.71 ± 2% | 8.46 µM | –
18 | CN1Cc2cc(-c3ncc(-c4cncc(NS(=O)(=O)c5ccc(F)cc5F)c4)s3)ccc2C1=O [Compound 88, 2,4-Difluoro-N-(5-(2-(2-methyl-1-oxoisoindolin-5-yl)thiazol-5-yl)pyridin-3-yl)benzenesulphonamide] | 40.5 ± 23% | – | IC50 (recombinant perforin; [2]): 18.8 µM
19 | COC(=O)c1cccc(S(=O)(=O)Nc2cncc(-c3ccc(-c4ccc5c(c4)CN(C)C5=O)s3)c2)c1 [Compound 91, Methyl 3-(N-(5-(5-(2-methyl-1-oxoisoindolin-5-yl)thiophen-2-yl)pyridin-3-yl)sulfamoyl)benzoate] | – | 7.77 µM | –
20 | CN1Cc2cc(-c3ccc(-c4cncc(NS(=O)(=O)c5cccc(C(F)(F)F)c5)c4)s3)ccc2C1=O [Compound 81, N-(5-(5-(2-Methyl-1-oxoisoindolin-5-yl)thiophen-2-yl)pyridin-3-yl)-3-(trifluoromethyl)benzenesulfonamides] | 37.8 ± 19% | 0.91 µM | –
21 | Cn1ccc2cc(-c3ccc(-c4cncc(NS(=O)(=O)c5ccc(F)cc5F)c4)s3)ccc21 [Compound 72, 2,4-Difluoro-N-(5-(5-(1-methyl-1H-indol-5-yl)thiophen-2-yl)pyridin-3-yl)benzenesulfonamide] | 19 ± 17% | – | IC50 (recombinant perforin; [2]): 8.63 µM
22 | COC(=O)c1ccccc1S(=O)(=O)Nc1cncc(-c2ccc(-c3ccc4c(c3)CN(C)C4=O)s2)c1 [Compound 86, Methyl 2-(N-(5-(5-(2-methyl-1-oxoisoindolin-5-yl)thiophen-2-yl)pyridin-3-yl)sulfamoyl)benzoate] | 2.3 ± 3% | 2.9 µM | –
23 | COc1ccc(S(=O)(=O)Nc2cncc(-c3ccc(-c4ccc5c(c4)CN(C)C5=O)s3)c2)cc1OC [Compound 21.Na, 3,4-Dimethoxy-N-(5-(5-(2-methyl-1-oxoisoindolin-5-yl)thiophen-2-yl)pyridin-3-yl)benzenesulfonamide, sodium salt] | 31% | – | –
24 | CN1Cc2cc(-c3ccc(-c4cncc(NS(=O)(=O)c5ccc(Cl)cc5)c4)s3)ccc2C1=O [Compound 11, 4-Chloro-N-(5-(5-(2-methyl-1-oxoisoindolin-5-yl)thiophen-2-yl)pyridin-3-yl)benzenesulfonamide] | – | 5.39 µM | inhibition at 20 µM [1]: 17%
25 | O=C1c2ccc(-c3ccc(-c4cncc(NS(=O)(=O)c5ccc(F)cc5F)c4)s3)cc2CN1CCN1CCOCC1 [Compound 69, 2,4-Difluoro-N-(5-(5-(2-(2-morpholinoethyl)-1-oxoisoindolin-5-yl)thiophen-2-yl)pyridin-3-yl)benzenesulfonamide] | – | 17 µM | –
26 | CN1Cc2cc(-c3ccc(-c4cncc(NS(=O)(=O)c5ccc(F)cc5F)c4)nc3)ccc2C1=O [Compound 83, 2,4-Difluoro-N-(5-(2-methyl-1-oxoisoindolin-5-yl)-[2,3′-bipyridin]-5′-yl)benzenesulphonamide] | – | 8.17 µM | –
27 | CN1Cc2cc(-c3ccc(-c4cncc(NS(=O)(=O)c5ccccc5C#N)c4)s3)ccc2C1=O [Compound 79.Na, 2-Cyano-N-(5-(5-(2-methyl-1-oxoisoindolin-5-yl)thiophen-2-yl)pyridin-3-yl)benzenesulfonamides] | – | 9.17 µM | –
28 | CN1Cc2cc(-c3ccc(-c4cncc(NC(=S)NC(=O)c5ccc(F)cc5)c4)s3)ccc2C1=O [Compound 68, 4-Fluoro-N-((5-(5-(2-methyl-1-oxoisoindolin-5-yl)thiophen-2-yl)pyridin-3-yl)carbamothioyl)benzamide] | – | 15.9 µM | –
29 | O=S(=O)(Nc1cncc(-c2ccc(-c3ccc4[nH]ccc4c3)s2)c1)c1ccc(F)cc1F [Compound 71, N-(5-(5-(1H-indol-5-yl)thiophen-2-yl)pyridin-3-yl)-2,4-difluorobenzenesulfonamide] | 87.7 ± 9% | – | –
